Source: patent US20260217701A1, “SELECTIVE BET INHIBITORS AND USES THEREOF” (Tay Therapeutics Limited, priority 2022, published 2026)

What was measured:
BET BD2 = settings: public sources, not a head-to-head trial, cited from earlier work; for BD2: comparator BET inhibitors
BRD4 BD2 = target: T1, BRD4 BD2 (Homo sapiens, UniProt O60885); assay: NanoBRET bromodomain assay, NanoLuc-BRD4-BD2 in HEK293 cells; assay type: binding; settings: nanoBRET assay, given as symbol only
T1 construct: HEK293 cells were transfected using NanoLuc-BRD4-BD1 or NanoLuc-BRD4-BD2 fusion vectors
Protocol: Plates were then incubated at 37° C.+5% CO2 incubator for 2 hours.
Fold Selectivity Calculated (IC50 BD1/IC50 BD2).

| Compound | Selectivity (BD1/BD2) (BET BD2; FRET, comparator) | BD2 (BET BD2) | Selectivity (BD1/BD2) (BRD4 BD2; higher number denotes higher selectivity) | BD2 (BRD4 BD2; lower number denotes higher potency) |
| --- | --- | --- | --- | --- |
| CCNC(=O)c1cc2c(-c3cc(C(C)(C)O)ccc3Oc3c(C)cc(F)cc3C)cn(C)c(=O)c2[nH]1 [ABBV-744] | 753x (FRET) | 28 nM | – | – |
| COCCn1cc(-c2ccccc2)c(-c2cn(C)c(=O)c3[nH]c(-c4cnn(C(F)(F)F)c4)cc23)cc1=O [Compound B, 4-(1-(2-methoxyethyl)-2-oxo-5-phenyl-1,2-dihydropyridin-4-yl)-6-methyl-2-(1-(trifluoromethyl)-1H-pyrazol-4-yl)-1,6-dihydro-7H-pyrrolo[2,3-c]pyridin-7-one] | – | – | >>>> | ≤ |
| CNC(=O)c1cc(C(=O)NC2CC2)cn(Cc2ccccc2)c1=O [GSK620] | – | 79 nM | – | – |
